# Test results: patent US5324747A, “N-substituted anilines, inhibitors of phospholipases A2” (Hoffmann-La Roche Inc., priority 1992, dated 1994)
# Counter-ions that a name gives are not always drawn.
# System: PLA2 Rat Paw Edema
# Assay: Phospholipase A2 Rat Paw Edema
# Assay type: in vivo, Lewis rats
# Details: Rattus norvegicus; 2 hr; 30 mg/kg; read-out: % Inhib of PLA2 Rat Paw Edema 2 hr (30 mg/kg)
# Description: Phospholipase A2 Rat Paw Edema
# Representation compounds of the invention were tested in rats to determine their ability to inhibit the acute inflammatory response induced by the injection of snake venom phospholipase A2. Test compounds are administered intraperitoneally or orally to groups of seven Lewis rats (≈200 gm) 1 hr prior to phospholipase A2 administration. The test compounds are dissolved in dimethyl sulfoxide for intraperitoneal administration and dissolved or suspended in Labrafil M-1944CS for oral administration. At 0 hr, 5 ug (10 units) of purified phospholipase A2 from Naja naja venom (Sigma Chem. Co.) dissolved in 0.1 mL of pyrogen free saline is injected subplantarly into the right hind paw to elicit the inflammatory response. The volume (in mL) of the right hind paw is measured by immersion of the paw to the level of the lateral malleolus in an aqueous plethysmometer immediately prior to the injection of phospholipase A2 and then at 0.5, 2 and 4 hr after phospholipase A2 injection. The paw edema is calculated by subtracting the zero time reading from the readings taken after injection. The percent change of the edema volume from the vehicle treated control is calculated to determine the activity of the test compound. Statistical analysis of the mean paw edema values of the control versus the treated groups is performed using Student's t-test. Significance of changes from mean value for vehicle-treated animals (*p<0.05, **p<0.01, ***p<0.001, ns/not significant).
row,Compound,inhibition in vivo at 30 mg/kg
1,"CCCCCCCCCCCCCCNC(=O)c1cc(C(=O)NCCCCCCCCCCCCCC)cc(N(CC(=O)O)CC(=O)O)c1 [Example 6q, N-(carboxymethyl)-N-[3,5-bis[(tetradecylamino)carbonyl]phenyl]glycine]",0%
2,"O=C(O)CN(CC(=O)O)c1cc(OCCCc2ccccc2)cc(OCCCc2ccccc2)c1 [Example 6g, N-(carboxymethyl)-N-[3,5-bis(3-phenylpropoxy)phenyl]glycine]",26%
3,"CCCCCCCCCCCCCCCCCCOc1cc(SC)cc(N(CC(=O)O)CC(=O)O)c1 [Example 166, N-(Carboxymethyl)-N-[3-(methylthio)-5-(octadecyloxy)phenyl]glycine]",31%
4,"CCCCCCCCCCOc1cc(OCCCCCCCCCC)cc(N(CC(=O)OCCN(CC)CC)CC(=O)OCCN(CC)CC)c1 [Example 130, N-[3,5-bis(Decyloxy)phenyl]-N-[2-[2-(diethylamino)ethoxy]-2-oxoethyl]glycine 2-(diethylamino)ethyl ester dihydrochloride]",2%

# Biological target: T1, HSF-PLA2 (Homo sapiens, UniProt P14555)
# T1 construct: extracellular enzyme obtained from human synovial fluid (HSF-PLA2); from tissue; host or cells: pooled human synovial fluid, added at 0.1% (v/v)
# T1 sequence (P14555 21-144): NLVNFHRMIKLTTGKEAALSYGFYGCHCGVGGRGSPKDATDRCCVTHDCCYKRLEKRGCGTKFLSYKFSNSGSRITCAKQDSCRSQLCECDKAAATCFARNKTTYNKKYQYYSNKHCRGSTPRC
# Assay: Assay for Inhibition of HSF-PLA2 In Vitro
# Assay type: biochemical
# Details: (1 μM); read-out: Inhib of HSF-PLA2, % inhibition
# Description: Assay for Inhibition of HSF-PLA2 In Vitro
# The PLA2 used in this test is the extracellular enzyme obtained from human synovial fluid (HSF-PLA2).
# The optimal conditions which were developed for the assay of HSF-PLA2 inhibitors are summarized as follows. […] The reaction was initiated by the addition of HSF-PLA2 and duplicate samples of the mixture were incubated in 13×100 mm glass tubes with shaking for 30 minutes at 37° C. […] The extraction of lipids from the stopped reaction mixture was conducted by the further additions of […] of chloroform and 1 ml of water with mixing. After centrifuging, the lower chloroform phase was transferred to smaller glass tubes and the solvent was evaporated to dryness with a nitrogen stream. The extracted lipid residue was redissolved in 50 μl of a solution containing carrier oleic acid (0.2 mg/ml) of chloroform-methanol [9 to 1, v/v]). The whole lipid extract was applied to a preactivated (30 minutes at 110° C.) silica gel-impregnated glass fiber thin layer chromatography sheet (ITLC type SG sheet from Gelman Sciences, Inc., Ann Arbor, Mich.) using hexane-acetic acid (100 to 1, v/v) as the developing solvent. This TLC system rapidly (6 minutes) resolved the enzymatically released product, ^14 C-oleic acid, from the unreacted ^14 C-phospholipid substrate. The unsaturated lipids were located on the chromatogram by a brief exposure to iodine vapor. […] A control incubation of substrate in the absence of HSF-PLA2 was performed in each experiment.
row,Compound,inhibition at 1 µM
1,"CCCCCCCCCCCCCCCCCCOc1cc(SC)cc(N(CC(=O)O)CC(=O)O)c1 [Example 166, N-(Carboxymethyl)-N-[3-(methylthio)-5-(octadecyloxy)phenyl]glycine]",88%
2,"CCCCCCCCCCCCCCc1ccc(N(CC(=O)O)CC(=O)O)cc1 [Example 39, N-(carboxymethyl)-N-(4-tetradecylphenyl)glycine]",67%

# The next lines start with the values.
row,inhibition at 1 µM,Compound
1,64%,"CCCCCCCCCC(=O)Oc1cc(OC(=O)CCCCCCCCC)cc(N(CC(=O)O)CC(=O)O)c1 [Example 6u, N-(carboxymethyl)-N-[3,5-bis[(1-oxodecyl)oxy]phenyl]glycine]"
2,39%,"CCCCCCCCCCc1ccc(N(CC(=O)O)CC(=O)O)cc1 [Example 39d, N-(carboxymethyl)-N-(4-decylphenyl)glycine]"

# Same assay, conditions: (5 μM); read-out: Inhib of HSF-PLA2, % inhibition
row,inhibition at 5 µM,Compound
1,63%,CCCCCCCC/C=C\CCCCCCCC(=O)Nc1cccc(N(CC(=O)O)CC(=O)O)c1 [Example 51]
2,67%,"CCCCC/C=C\C/C=C\CCCCCCCC(=O)Nc1cccc(N(CC(=O)O)CC(=O)O)c1 [Example 51, N-(carboxymethyl)-N-[3-[(9Z,12Z)-(1-oxo-9,12-octadecadienyl)amino]phenyl]glycine]"

# Same assay, conditions: (10 μM); read-out: Inhib of HSF-PLA2, % inhibition
row,inhibition at 10 µM,Compound
1,30%,O=C(O)CN(CC(=O)O)c1cc(C(=O)NC23CC4CC(CC(C4)C2)C3)cc(C(=O)NC23CC4CC(CC(C4)C2)C3)c1 [Example 6s]
2,46%,"CCCCCCCCCCNC(=O)c1cccc(N(CC(=O)O)CC(=O)O)c1 [Example 36d, N-(carboxymethyl)-N-[[(decylamino)carbonyl]phenyl]glycine]"
3,39%,"CCCCCCCCCCCCCCCCCCCc1cc(CCCCCCCCCCCCCCCCCCC)cc(N(CC(=O)O)CC(=O)O)c1 [Example 6t, N-(carboxymethyl)-N-(3,5-dinonadecylphenyl)glycine]"
4,73%,"CCCCCCCCCCCCCCOc1cc(NCC(=O)O)cc(OCCCCCCCCCCCCCC)c1 [Example 127c, N-[3,5-bis(tetradecyloxy)phenyl]glycine]"
5,19%,"O=C(O)CN(CC(=O)O)c1cccc(OCCOc2ccc3ccccc3c2)c1 [Example 36g, N-(carboxymethyl)-N-[(3-(2-naphthalenyloxy)ethoxy]phenyl]glycine]"

# Same assay, conditions: (20 μM); read-out: Inhib of HSF-PLA2, % inhibition
row,inhibition at 20 µM,Compound
1,25%,"O=C(O)CN(CC(=O)O)c1cccc(C(=O)NC23CC4CC(CC(C4)C2)C3)c1 [Example 36h, N-(carboxymethyl)-N-[3-[(tricyclo[3.3.1.1/3,7/]dec-1-ylamino)carbonyl]phenyl]glycine]"
2,6%,"O=C(O)CCCCOc1cc(OCCCCC(=O)O)cc(N(CC(=O)O)CC(=O)O)c1 [Example 6i, N-(carboxymethyl)-N-[3,5-bis[(5-hydroxy-5-oxopentyl)oxy]phenyl]glycine]"
3,-10%,"O=C(O)CN(CC(=O)O)c1ccccc1 [Example 39a, N-(carboxymethyl)-N-phenylglycine]"

# Same assay, conditions: read-out: Inhib of HSF-PLA2 IC50
row,Compound,IC50
1,"CCCCCCCCCCCCCCNC(=O)c1cc(C(=O)NCCCCCCCCCCCCCC)cc(N(CC(=O)O)CC(=O)O)c1 [Example 6q, N-(carboxymethyl)-N-[3,5-bis[(tetradecylamino)carbonyl]phenyl]glycine]",300 nM
2,"CCCCCCCCCCCCCCCCCCOc1cc(NCC(=O)O)cc(OC(=O)C23CC4CC(CC(C4)C2)C3)c1 [Example 175, N-[[3-(Octadecyloxy)-5-(tricyclo[3.3.1.1/3.7/]dec-1-ylcarbonyl)oxy]phenyl]glycine]",300 nM
3,"O=C(O)CN(CC(=O)O)c1cc(OCCCc2ccccc2)cc(OCCCc2ccccc2)c1 [Example 6g, N-(carboxymethyl)-N-[3,5-bis(3-phenylpropoxy)phenyl]glycine]",1300 nM
4,CCCCCCCCCCCCCCCCCCOc1cc(OC(C)=O)cc(N(CC(=O)O)CC(=O)O)c1 [Example 80],220 nM
5,"CCCCC/C=C\C/C=C\CCCCCCCCOc1cccc(N(CC(=O)O)CC(=O)O)c1 [Example 49, N-(carboxymethyl)-N-[3-[(9Z,12Z)-(9,12-octadecadienyl]oxy]phenyl]glycine]",200 nM
6,CCCCCCCCCC(=O)Nc1cc(NC(=O)CCCCCCCCC)cc(N(CC(=O)O)CC(=O)O)c1 [Example 21],3800 nM
7,"CCCCCCCCCCc1cc(CCCCCCCCCC)cc(N(CC(=O)O)CC(=O)O)c1 [Example 29, N-(Carboxymethyl)-N-(3,5-didecylphenyl) glycine]",1500 nM
8,CCCCCCCCC(O)COc1cc(NCC(=O)O)cc(OCC(O)CCCCCCCC)c1 (stereo not shown) [127 d],3500 nM
9,CCCCCCCC/C=C\CCCCCCCCOc1cccc(N(CC(=O)O)CC(=O)O)c1 [Example 49],300 nM

# Continued, values first:
row,IC50,Compound
1,100 nM,CCCCCCCCCCCCCCCCCCOc1cc(OC(=O)C(c2ccccc2)c2ccccc2)cc(N(CC(=O)O)CC(=O)O)c1 [Example 58g]
2,300 nM,CCCCCCCCCCCCCCCCCCOc1cc(OCCCOc2cccnc2)cc(N(CC(=O)O)CC(=O)O)c1 [Example 58i]
3,600 nM,"O=C(O)CN(CC(=O)O)c1cc(OCCOc2ccc3ccccc3c2)cc(OCCOc2ccc3ccccc3c2)c1 [Example 6o, N-(carboxymethyl)-N-[3,5-bis[2-[2-naphthalenyloxy)]ethoxy]glycine]"
4,200 nM,"CCCCCCCCCCCCCCCCCCCc1cccc(N(CC(=O)O)CC(=O)O)c1 [Example 36f, N-(carboxymethyl)-N-(3-nonadecylphenyl)glycine]"
5,580 nM,O=C(O)CN(CC(=O)O)c1cc(OCCCOc2cccc(-c3ccccc3)c2)cc(OCCCOc2cccc(-c3ccccc3)c2)c1 [Example 6m]
6,500 nM,"CCCCCCCCCCCCCCCCCCOc1cc(OCCCCCCCCCCCCCCCCCC)cc(N(CC(=O)O)CC(=O)O)c1 [Example 6f, N-(carboxymethyl)-N-[3,5-bis(octadecyloxy)phenyl]glycine]"
7,160 nM,"CCCCCCCCCCOc1ccc(N(CC(=O)O)CC(=O)O)cc1OCCCCCCCCCC [Example 119a, N-(carboxymethyl)-N-[3,4-bis(decyloxy)phenyl]glycine]"
8,640 nM,"CCCCCCCCCCCCCCCCCCNC(=O)c1cc(C(=O)NCCCCCCCCCCCCCCCCCC)cc(N(CC(=O)O)CC(=O)O)c1 [Example 6r, N-(carboxymethyl)-N-[3,5-bis[(octadecylamino)carbonyl]phenyl]glycine]"
9,200 nM,CCCCCCCCCCCCCCCCCCOc1cc(OCCCCCCCCCCC(=O)O)cc(N(CC(=O)O)CC(=O)O)c1 [Example 58e]
10,2000 nM,"O=C(O)CN(CC(=O)O)c1cc(OCCOc2cccc3ccccc23)cc(OCCOc2cccc3ccccc23)c1 [Example 6p, N-(carboxymethyl)-N-[3,5-bis[2-[1-naphthalenyloxy)]ethoxy]glycine]"
11,300 nM,"CCCCCCCCCCCCCCCCCCOc1cc(OC(=O)C23CC4CC(CC(C4)C2)C3)cc(N(CC(=O)O)CC(=O)O)c1 [Example 58f, N-(Carboxymethyl)-N-[[3-(octadecyloxy)-5-(tricyclo[3.3.1.1/3,7]dec-1-ylcarbonyl)oxy]phenyl]glycine]"
12,400 nM,O=C(O)CN(CC(=O)O)c1cc(OCCCOc2ccc(-c3ccccc3)cc2)cc(OCCCOc2ccc(-c3ccccc3)cc2)c1 [Example 6n]
13,80 nM,"CCCCCCCCCCCCCCCCCCOc1cc(OCCCCCCCCCCC(=O)OC)cc(N(CC(=O)O)CC(=O)O)c1 [Example 58d, N-(carboxymethyl)-N-[3-(11-methoxy-11-oxoundecyloxy)-5-(octadecyloxy)phenyl]glycine]"
